Patent US20230173764A1, “SURGICAL SYSTEM AND METHODS OF USE” (priority 2021, published 2023)

Tests used:
[1] = test system: myofibroblast formation; conditions: Ajmal et al. (2003); cited from earlier work
[2] = given preoperatively; cited from earlier work
[3] = test system: fibrinolysis; assay: concentrations effective against fibrinolysis; conditions: one tenth of the doses used in the non-GLP acute porcine study
Excerpt: However, in some embodiments, however, higher doses of tranexamic acid are used for topical applications to account for tranexamic acid being widely distributed throughout the extracellular and intracellular compartments when given preoperatively.

O=S(=O)([O-])CCS.[Na+] [MESNA, sodium 2-mercaptoethane sulfonate]
myofibroblast formation [1]: diminish myofibroblast formation

NC[C@H]1CC[C@H](C(=O)O)CC1 [tranexamic acid]
time to reach plasma concentrations [2]: 5 to 15 min | effective in reversing fibrinolysis [3]: effective
